Columns and labels:
Format in all cases: cell-based
[1] = test system: A549 cells; assay: Transcriptomic analysis of HH33-treated A549 cells
Description: RNA extraction was carried out followed by cDNA synthesis using SuperScript VILO cDNA Synthesis kit (Invitrogen, Waltham, MA, USA) and amplification using Ion AmpliSeq gene expression core panel primers. The prepared library was purified using Agencourt AMPure XP beads (Beckman Coulter, California, USA) and quantified using Ion Library TaqMan™ Quantitation Kit (Applied Biosystems, Waltham, MA, USA). The libraries were further diluted to […] and pooled equally with four individual samples per pool. The pooled libraries were amplified using emulsion PCR on Ion OneTouch™ 2 instrument (OT2) and the enrichment was performed on Ion OneTouch™ ES following the manufacturer's instruction. Thus, prepared template libraries were then sequenced with Ion S5 XL Semiconductor sequencer using the Ion 540™ Chip. RNA-seq data were analyzed using Ion Torrent Software Suite version 5.4 and the alignment was carried out using modifications of the Torrent Mapping Alignment Program (TMAP) optimizing it for aligning the raw sequencing reads against reference sequence derived from hgl9 (GRCh37) assembly. The specificity and sensitivity was maintained by implementing a two-stage mapping approach by employing BWA-short, BWA-long, SSAHA [31], Super-maximal Exact Matching and Smith Waterman algorithm for optimal mapping. Raw read counts of the targeted genes were performed using Samtools (Samtools view —c -F 4-L bed_file bam_file) and the number of expressed transcripts was confirmed after Fragments Per Kilobase Million (FPKM) normalisation. Differentially expressed gene (DEG) analysis was performed using a script written in R programming language (version 3.6.3) with function calls to DESeq2 package from Bioconductor library sets. Raw read counts from RNASeq were normalized using quantile normalization. All counts ranked “0” were excluded. Differentially expressed genes between the two set of cell lines [HH33-treated (n=3), and untreated (n=3)] were assessed using 2 tailed t-test. Differentially expressed genes with p-value of <0.05, adjusted p-value<0.8 and 5-fold difference were included for pathway analysis using Metascape.

[2] = test system: A549; assay: Cell cycle analysis by flow cytometry, A549; conditions: 1 μM, up to 72 hours, Control 8.5%
Description: The effect of the HH32 and HH33 compounds on the distribution of cell cycle at different time points (2, 4, 8, 24, 48, and 72 hours) was analyzed using flow cytometry. Briefly, the cells were harvested and fixed in 70% ethanol for 24 hours at −20° C. The fixed cells were treated with RNAase […] (Sigma Aldrich, Missouri, USA) and stained with propidium iodide […] (Sigma Aldrich, Missouri, USA). The data were acquired using BD Accuri C6 flow cytometer (Becton Dickenson, San Jose, CA, USA) and analysis was done using Flow Jo software (Tree Star, Inc, Ashland, OR, USA).

[3] = test system: CDK4 knockout HCT116 cells; assay: Sensitivity and cell cycle of CDK4 knockout versus wild-type HCT116
Description: CRISPR-Cas9 was employed to stablish HCT116 CDK4 KO cells. Ribonucleotide protein (RNP) delivery system for CRISPR technique was utilized. All the reagents were purchased for Thermoscientific company, USA. gRNA was used to target CDK4 genes. Lipofectamine™ CRISPRMAX™ Cas9 Transfection Reagent was used to transfect the cells with the gRNA and Cas9. The genomic cleavage efficiency was assessed by immunoblotting, while a scrambled gRNA, Trueguide gRNA Negative control, was used as a negative control in all the steps to ensure the specificity of the target. […] To generate isolated clones with complete knockout, the mixed pool of cells was diluted 1 cell/[…] liquid medium and then dispersed into 96 wells plate. The individual cells were left to form clones. […]
The cytotoxic effects of HH32 and HH33 compounds were evaluated at various concentrations ranging from 0.0001 to 100 μM by sulphrhodamine-B (SRB) assay as described previously. The anti-proliferative activity was expressed as growth inhibitory concentration (IC50) values, which were calculated by the sigmoidal dose-response curve fitting method using Graph pad prism 6 software (GraphPad Software, San Diego, CA, USA).
The effect of the HH32 and HH33 compounds on the distribution of cell cycle at different time points (2, 4, 8, 24, 48, and 72 hours) was analyzed using flow cytometry. […]

[4] = A549, H33-treated vs DMSO-treated, DNA repair pathways
[5] = H33-treated A549 cells/DMSO-treated A549 cells, Apoptosis
[6] = H33-treated A549 cells/DMSO-treated A549 cells, Cell Cycle
[7] = H33-treated A549 cells/DMSO-treated A549 cells, Transcriptional Regulation by TP53

## COC(=O)c1cc(NC2=NC(=O)C(=Cc3ccc(N(C)C)cc3)S2)ccc1OC(C)=O [HH33, Methyl 2-acetoxy-5-[(5-(4-dimethylaminobenzylidene)-4 (H)-oxo-1,3-thiazol-2-yl)-amino]benzoate]
[1]; A549, H33-treated vs DMSO-treated, DNA repair / cell cycle
  Fold change (H_Mean/D_Mean) CLSPN: 0.01798
[1]; A549, H33-treated vs DMSO-treated, DNA repair / cell cycle / TP53 regulation
  Fold change (H_Mean/D_Mean) BARD1: 0.0451
[1]; [4]
  Fold change (H_Mean/D_Mean) ACTR8: 0.01139
  Fold change (H_Mean/D_Mean) CHEK2: 0.05943
  Fold change (H_Mean/D_Mean) EYA3: 0.02596
[1]; A549, confirmed by quantitative RT-PCR
  six shared genes (ATAD2, CDCA3, FAMIIIB, CDKN3, HISTIH2AH, MIS18BP1): maximally downregulated
[1]; A549, hypergeometric test
  apoptotic signaling pathway: upregulation
  cell cycle progression pathway: down-regulation
[1]; [5]
  Fold change BECN1: 186.7500
  Fold change CRIP1: 199.5714
  Fold change TGFB1: 100.8000
  Fold change TNFRSF10C: 802.5000
  Fold change YWHAH: 168.8804
[1]; [6]
  Fold change CDC14A: 0.01425
  Fold change CEP78: 0.01614
  Fold change ODF2: 0.005902
[1]; [7]
  Fold change CCNE1: 0.02093
  Fold change CDK9: 0.02262
  Fold change COX16: 0.04666
  Fold change CSNK2A2: 0.05877
[2]
  G2/M cell cycle arrest: 45.1%
[3]
  sensitivity and cell cycle distribution, wild-type versus CDK4 knockout cells: no difference

From patent US20250002467A1, “DESIGN, SYNTHESIS AND MECHANISMS OF ANTICANCER ACTIVITY OF NEW ACETYLATED 5-AMINOSALICYLATE-THIAZOLINONE HYBRID DERIVATIVES” (University of Sharjah, priority 2023, published 2025)
